What was measured:
[1] = target: Monoamine transporters; serotonin & dopamine (Rattus norvegicus) (UniProt P31652+P23977); assay: Relative affinity for dopamine and serotonin transporters; format: protein assay
[2] = target: Sodium-dependent dopamine transporter (Rattus norvegicus, UniProt P23977); assay: Displacement of [3H]WIN-35428 from dopamine transporter (DAT)
[3] = target: Sodium-dependent serotonin transporter (Rattus norvegicus, UniProt P31652); assay: Displacement of [3H]paroxetine from serotonin transporter (SERT)
Sodium-dependent serotonin transporter, sequence (P31652 whole entry): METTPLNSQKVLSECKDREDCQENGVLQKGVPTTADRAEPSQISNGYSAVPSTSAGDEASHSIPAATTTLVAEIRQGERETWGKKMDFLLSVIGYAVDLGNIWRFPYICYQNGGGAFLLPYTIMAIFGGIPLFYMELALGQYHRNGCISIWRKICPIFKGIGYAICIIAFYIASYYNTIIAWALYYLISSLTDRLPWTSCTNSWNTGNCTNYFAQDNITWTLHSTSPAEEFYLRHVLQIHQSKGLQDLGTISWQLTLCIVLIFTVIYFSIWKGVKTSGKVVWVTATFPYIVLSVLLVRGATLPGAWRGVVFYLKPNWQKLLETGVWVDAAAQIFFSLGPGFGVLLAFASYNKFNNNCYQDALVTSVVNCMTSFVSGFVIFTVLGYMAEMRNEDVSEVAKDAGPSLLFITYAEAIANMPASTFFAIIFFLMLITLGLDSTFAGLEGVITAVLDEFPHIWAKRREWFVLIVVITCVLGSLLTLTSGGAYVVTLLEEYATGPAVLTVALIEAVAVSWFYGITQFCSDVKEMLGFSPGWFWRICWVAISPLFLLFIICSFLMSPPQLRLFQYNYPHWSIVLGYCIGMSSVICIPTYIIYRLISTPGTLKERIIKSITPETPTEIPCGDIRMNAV

[4] = target: Sodium-dependent dopamine transporter (Rattus norvegicus) (UniProt P23977); assay: Inhibition of binding affinity for dopamine transporter (DAT) by competition against bound [3H]WIN-35428 tested in vitro at a dose of 100 uM
Sodium-dependent dopamine transporter (Rattus norvegicus), sequence (P23977 whole entry): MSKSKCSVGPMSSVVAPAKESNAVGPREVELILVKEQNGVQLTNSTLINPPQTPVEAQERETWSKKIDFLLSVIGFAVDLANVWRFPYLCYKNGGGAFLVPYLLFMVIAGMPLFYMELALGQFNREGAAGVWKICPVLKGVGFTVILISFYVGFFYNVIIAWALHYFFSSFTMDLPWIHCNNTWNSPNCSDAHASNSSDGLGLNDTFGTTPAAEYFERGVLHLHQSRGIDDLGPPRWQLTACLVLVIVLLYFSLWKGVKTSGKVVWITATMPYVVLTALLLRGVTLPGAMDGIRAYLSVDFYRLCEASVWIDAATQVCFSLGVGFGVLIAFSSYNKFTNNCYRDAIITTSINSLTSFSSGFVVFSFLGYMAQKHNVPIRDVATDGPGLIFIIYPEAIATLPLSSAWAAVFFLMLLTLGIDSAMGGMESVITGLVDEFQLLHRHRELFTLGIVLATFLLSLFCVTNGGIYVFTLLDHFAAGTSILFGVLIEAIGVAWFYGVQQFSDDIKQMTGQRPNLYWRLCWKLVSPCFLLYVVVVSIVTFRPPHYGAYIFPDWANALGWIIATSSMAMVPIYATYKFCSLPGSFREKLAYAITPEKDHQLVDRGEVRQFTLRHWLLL

Sodium-dependent dopamine transporter, sequence (P23977 whole entry): as above
Monoamine transporters; serotonin & dopamine (Rattus norvegicus), sequence (P23977 whole entry, looked up): as the sequence (P23977 whole entry) above
Monoamine transporters; serotonin & dopamine (Rattus norvegicus), sequence (P31652 whole entry, looked up): as the sequence (P31652 whole entry) above

Work on `CCOC(=O)C1(c2ccc(F)cc2)CCN(C)CC1` yielded a Selectivity [1] of 34.7, a Ki [2] of 10700 nM and a Ki [3] of 308 nM.
`CN1CCC(C#N)(c2ccc(Cl)c(Cl)c2)CC1` gave a Selectivity [1] of 3.32, a Ki [2] of 2670 nM and a Ki [3] of 805 nM.
In the case of `CCOC(=O)C1(c2ccc(C)cc2)CCN(C)CC1`, the Selectivity [1] is reported as 7.69, the Ki [2] is reported as 12400 nM and the inhibition [4] is reported as 68%. For the same compound, the Ki [3] was 1610 nM.
With `CCOC(=O)C1(c2ccc3ccccc3c2)CCN(C)CC1` the Selectivity [1] was 158, the Ki [2] was 1140 nM and the Ki [3] was 7.2 nM.
`CN1CCC(C#N)(c2ccc(I)cc2)CC1` showed a Selectivity [1] of 19.4 and a Ki [3] of 430 nM.
Work on `CN1CCC(C#N)(c2ccc(Cl)cc2)CC1` yielded a Selectivity [1] of 4.31, a Ki [2] of 22000 nM and an inhibition [4] of 79%. The Ki [3] was 5110 nM.
`CN1CCC(C#N)(c2ccc3ccccc3c2)CC1` showed a Selectivity [1] of 18.9, a Ki [2] of 2360 nM and a Ki [3] of 125 nM.
With `CCOC(=O)C1(c2ccc(Cl)c(Cl)c2)CCN(C)CC1` the Selectivity [1] was 6.68, the Ki [2] was 125 nM and the Ki [3] was 19 nM.
For `CN1CCC(C#N)(c2cccc3ccccc23)CC1`, the Selectivity [1] was 16.7, the Ki [2] was 16000 nM and the Ki [3] was 1020 nM.
In the case of `CCOC(=O)C1(c2ccc(I)cc2)CCN(C)CC1`, the Selectivity [1] is reported as 155, the Ki [2] is reported as 3250 nM and the Ki [3] is reported as 21 nM.
In the case of `CN1CCC(C#N)(c2ccc(F)cc2)CC1`, the inhibition [4] is reported as 45% and the Ki [3] is reported as 10100 nM.
`CCOC(=O)C1(c2ccc(Cl)cc2)CCN(C)CC1` gave a Selectivity [1] of 14.8, a Ki [2] of 4100 nM and an inhibition [4] of 79%. It also gave a Ki [3] of 277 nM.
`Cc1ccc(C2(C#N)CCN(C)CC2)cc1` was tested, and the Selectivity [1] was 3.06, the Ki [2] was 41800 nM and the inhibition [4] was 68%. For the same compound, the Ki [3] was 13700 nM.

— ChEMBL document CHEMBL1131888, “Synthesis, dopamine and serotonin transporter binding affinities of novel analogues of meperidine” (Bioorg Med Chem Lett, 1999)
